Results as given in article PMC4287680, “Targeting GLP-1 receptors for repeated magnetic resonance imaging differentiates graded losses of pancreatic beta cells in mice” (Diabetologia, 2014).

Tested on: pancreas of RIP-DTr mice
Assay: Total pancreas insulin content (acid-ethanol extraction, ELISA) after DT
Format: in vivo
Excerpt: Rat insulin promoter-diphtheria toxin receptor (RIP-DTr) mice were generated as reported. Briefly, the transgene containing an insulin promoter and the diphtheria toxin (DT) receptor coding sequence (RIP-DTr) was targeted to the Hprt locus of the X chromosome. Thus, in this model, DT administration leads to a parallel loss of insulin content and beta cells, which is partially due to the random X inactivation (on average 50%) in hemizygous female mice and nearly complete ablation in male mice.
To evaluate the total insulin content of the pancreas, whole glands were carefully dissected and extracted in acid-ethanol for 24 h, as reported. Pancreas insulin content was evaluated using a rodent insulin ELISA kit (Mercodia, Uppsala, Sweden) according to the manufacturer’s instructions.
Three-to-four-months-old male and female mice of the RIP-DTr strain [33, 36] were tested before and after DT administration. Mice were initially imaged before the injection of a probe to obtain a baseline T2 value (ESM Fig. 2). […] One week after this first imaging session, the same mice were given three intraperitoneal injections of 125 ng DT (injections administered on days 7, 9 and 11; ESM Fig. 2) and were monitored for non-fasting blood glucose by measuring tail-vein blood samples with a glucose meter. […]

## Diphtheria toxin [DT]
Female RIP-DTr mice, up to 3 months after DT administration (3 × 125 ng i.p.)
  Pancreas insulin content after DT, female mice (average): 63 % of the control levels
Male RIP-DTr mice after DT administration (3 × 125 ng i.p.)
  Pancreas insulin content after DT, male mice: 0.4 % of control levels
